Here are results for ten compounds from patent US20150018427A1, “COMPOUNDS FOR TREATING PARVOVIRUS INFECTION” (ARATANA THERAPEUTICS NV, priority 2012, published 2015).

Where a name gives a salt, the structure may show the parent alone.

Test [1] has as its system canine parvovirus 2c (CPV-2c). Description: CPE visual scoring assay, CPV-2c in CrFK cells. In kind it is cell-based.
The test system of test [2] is feline panleukopenia virus (FPV). The experiment in a line: CPE visual scoring assay, FPV in CrFK cells. In kind it is cell-based. The method, then:
Crandell Reese Feline Kidney (CrFK) cells were grown in Dulbecco minimum essential medium (DMEM, Life Technologies) containing 1% sodium bicarbonate (Life Technologies), 1% L-Glutamine (Life Technologies) and 5% fetal calf serum (FCS, Biochrom). In a 96 well plate a serial dilution of compound was added together with 10 TCID50 of feline panleukopenia virus (FPV) or 10 TCID50 canine parvovirus 2c (CPV-2c) and 20,000 CrFK cells. Infected cells without any added compound were used as positive controls (virus control) and uninfected cells were used as negative controls (cell control). The cells were incubated for 4 days and viral cytopathogenic effect (CPE) was scored visually. EC50-values were determined as the concentration of compound that inhibited 50% of the viral replication as compared with virus control.
2-methyladamantan-2-amine HCl and 2-ethyladamantan-2-amine HCl were dissolved in Dulbecco's phosphate buffered saline (DPBS) at a concentration of 10 mM. The inhibition experiments and the preparation thereof were performed as described above for Example 2. […]

Test [3] concerns canine parvovirus 2c (CPV-2c). The experiment in a line: CPV-2c DNA reduction by quantitative PCR, CrFK cells. It counts as cell-based.
Test [4] has as its system feline panleukopenia virus (FPV). The experiment in a line: FPV DNA reduction by quantitative PCR, CrFK cells. It counts as cell-based. The following applies: read-out: EC50-value (μM) for FPV, DNA reduction. The method, then: (§1) Amantadine, amantadine hydrochloride (HCl) and memantine were dissolved in Dulbecco's phosphate buffered saline (DPBS) at a concentration of 10 mM. Crandell Reese Feline Kidney (CrFK) cells were grown in Dulbecco minimum essential medium (DMEM, Life Technologies) containing 1% sodium bicarbonate (Life Technologies), 1% L-Glutamine (Life Technologies) and 5% fetal calf serum (FCS, Biochrom). In a 24 well plate 100,000 CrFK cells were seeded on day 0. On day 1, the medium was removed and 10 TCID50 of FPV or 10 TCID50 CPV-2c was added and incubated for 2 h at 37° C. in humidified conditions. After incubation, medium was removed and CrFK cells were washed with DPBS. Subsequently, a serial dilution of compound in culture medium was added (250, 50, and 10 μM). Infected cells without any added compound were used as positive controls (virus control) and uninfected cells were used as negative controls (cell control). The cells were incubated at 37° C. in humidified conditions. After 4 days of incubation medium containing newly produced virus particles was collected and viral titers were determined using CrFK cells. In addition, 200 μL of supernatant was extracted to obtain FPV or CPV-2c DNA using the QIAamp DNA extraction kit (Qiagen). The extracted FPV DNA was detected by a real time PCR using the Taqman Fast Universal mastermix (Life Technologies) and the standard Fast cycling protocol using the StepOnePlus real time device (Applied Biosystems). In the PCR mixture an optimized 900 nM of each forward and reverse primer was used and 250 nM FAM-BHQ1 labeled probe as published by Decaro et al. (J. Virol. Methods 2008, 147, 67-71). EC50 values were determined as the concentration of compound that inhibited 50% of the viral DNA.
2-methyladamantan-2-amine HCl and 2-ethyladamantan-2-amine HCl were dissolved in Dulbecco's phosphate buffered saline (DPBS) at a concentration of 10 mM. The inhibition experiments and the preparation thereof were performed as described above for Example 2.

Test [5] has the same test system. Description: FPV titer reduction, titration of produced virus on CrFK cells. In kind it is cell-based. The method, then:
as §1
Reduction of CPV-2c and FPV titers under increasing concentrations of amantadine hydrochloride (HCl) and memantine are shown in Table 3a and 3b, respectively. Viral titers are determined by titration of the produced virus on CrFK cells and incubated for 5 days. The obtained titers where compared with the control (virus production without addition of compound).

In test [6] the test system is canine parvovirus 2c (CPV-2c). The experiment in a line: CPV-2c titer reduction, titration of produced virus on CrFK cells. It counts as cell-based.
The test system of test [7] is canine parvovirus type 2 (CPV2). Description: Treatment of dog naturally infected with canine parvovirus type 2. It counts as in vivo. As to conditions: beagle puppy, CPV2 PCR-positive, 10 mg/kg twice daily for 2 weeks.
Setting [8] is: Canine parvovirus, 96 h, Table 1, CPE visual scoring, CrFK cells, 10 TCID50, 4 days, read-out: EC50-value (μM) for CPV-2c.
Setting [9] is: Feline panleukopenia virus, CRFK, 96 h, Table 1, CPE visual scoring, CrFK cells, 10 TCID50, 4 days, read-out: EC50-value (μM) for FPV.
Where [10] appears, read: Canine parvovirus, CRFK, Table 4a, CPE visual scoring assay, read-out: EC50-value (μM) for CPV-2c.
Where [11] appears, read: CRFK, Table 4b, quantitative PCR, read-out: EC50-value (μM) for CPV-2c, DNA reduction.
Setting [12] is: Feline panleukopenia virus, CRFK, Table 4b, quantitative PCR.
The mark [13] stands for this setting: Feline panleukopenia virus, CRFK, read-out: EC50-value (μM) for FPV, Table 4a, CPE visual scoring assay.
Setting [14] is: 96 h, Table 2, viral DNA in supernatant by quantitative PCR, CrFK cells, 4 days, read-out: EC50-value (μM) for CPV-2c, DNA reduction.
Setting [15] is: Feline panleukopenia virus, CRFK, 96 h, Table 2, viral DNA in supernatant by quantitative PCR, CrFK cells, 4 days.
Where [16] appears, read: Canine parvovirus, CRFK, 96 h, read-out: EC50-value (μM) for CPV-2c, Table 1, CPE visual scoring, CrFK cells, 10 TCID50, 4 days.

One may read the EC50 as the concentration that produces a half-maximal response. In the case of `NC12CC3CC(C1)CC(O)(C3)C2` [3-amino-1-amantadol], the half-maximal effective concentration (EC50) in test [1] (Table 1, CPE visual scoring, CrFK cells, 10 TCID50, 4 days, read-out: EC50-value (μM) for CPV-2c) is > 250 µM; in test [2] (Table 1, CPE visual scoring, CrFK cells, 10 TCID50, 4 days, read-out: EC50-value (μM) for FPV), > 250 µM.
As for `NCC12CC3CC(CC(C3)C1)C2` [1-adamantanemethylamine], the EC50 in test [1] (setting [8]) and in test [2] (setting [9]) was > 250 µM throughout.
Consider `CCC1(N)C2CC3CC(C2)CC1C3` (centres unmarked) [2-ethyladamantan-2-amine], for which the EC50 is 4.2 µM in test [1] (setting [10]), 2.44 µM in test [3] (setting [11]), 1.31 µM in test [4] (setting [12]) and 2.42 µM in test [2] (setting [13]).
On to `NC1C2CC3CC(C2)CC1C3` (centres unmarked) [2-adamantylamine HCl, 2-adamantylamine hydrochloride], for which the EC50 in test [1] (setting [8]) was found to be 5.12 µM; in test [2] (setting [9]), 17.3 µM.
As to `CC1(N)C2CC3CC(C2)CC1C3` (centres unmarked) [2-methyladamantan-2-amine], the half-maximal effective concentration (EC50) in test [1] (setting [10]) is 2.25 µM; in test [3] (setting [11]) it was 1.14 µM; in test [4] (setting [12]) it was < 0.781 µM; in test [2] (setting [13]), 1.95 µM.
For the compound `CC12CC3CC(C)(C1)CC(N)(C3)C2` [Memantine, memantine], the “Titer reduction of FPV, log10 reduction compared with control” value (shortened to “Titer reduction of FPV, log10 reduction”) turned out to be 0 log10 in test [5] (10 μM compound), 0.71 log10 in test [5] (50 μM compound) and 1.41 log10 in test [5] (250 μM compound). Further, the concentration giving a half-maximal response (EC50) in test [1] (setting [8]) amounted to 23.9 µM; in test [3] (setting [14]), 17.9 µM; in test [4] (setting [15]) it was 42.6 µM; in test [2] (setting [9]), 23.3 µM. Moreover, the “Titer reduction of CPV-2c, log10 reduction compared with control” value amounted to 0 log10 in test [6] (10 μM compound), 0.50 log10 in test [6] (50 μM compound) and 1.55 log10 in test [6] (250 μM compound).
For the compound `CC(N)C12CC3CC(CC(C3)C1)C2` (centres unmarked) [Rimantadine, rimantadine], the concentration giving a half-maximal response (EC50) in test [1] (setting [16]) and in test [2] (setting [9]) was > 250 µM in each case.
With `CNC12CC3CC(CC(C3)C1)C2` [N-methyl-1-adamantylamine], the EC50 in test [1] (setting [8]) and in test [2] (setting [9]) was > 250 µM in each case.
With `NC12CC3CC(CC(C3)C1)C2` [Amantadine, amantadine], the “Titer reduction of FPV, log10 reduction” value in test [5] (10 μM compound) is listed as 0 log10; in test [5] (50 μM compound), 0.48 log10; in test [5] (250 μM compound), 1.43 log10. The EC50 in test [1] (setting [16]) came out at 22.6 µM; in test [3] (CRFK, 96 h, read-out: EC50-value (μM) for CPV-2c, DNA reduction, Table 2, viral DNA in supernatant by quantitative PCR, CrFK cells, 4 days), 53.5 µM; in test [4] (setting [15]), 57.1 µM; in test [2] (setting [9]), 18.7 µM. Also, the “Titer reduction of CPV-2c, log10 reduction compared with control” value in test [6] (10 μM compound) was determined as 0 log10; in test [6] (50 μM compound), 2.23 log10; in test [6] (250 μM compound) it was 2.23 log10.
In the case of `Cl.NC12CC3CC(CC(C3)C1)C2` [Amantadine HCl, 1-Aminoadamantane hydrochloride], the results for the “Titer reduction of FPV, log10 reduction” value in test [5] (10 μM compound), in test [5] (50 μM compound) and in test [5] (250 μM compound) were 0 log10, 1.50 log10 and 2.44 log10, respectively. Besides, the “Clinical signs of parvovirus infection” value in test [7] is “improved from day 3 onwards”. Also, in test [7], the “Recovery after 2 weeks of treatment” value is reported as “recovered completely”. In addition, the EC50 came out at 14 µM in test [1] (setting [8]); 6.59 µM in test [3] (setting [14]); 30.1 µM in test [4] (Table 2, viral DNA in supernatant by quantitative PCR, CrFK cells, 4 days, hydrochloride); 33.3 µM in test [2] (Table 1, CPE visual scoring, CrFK cells, 10 TCID50, 4 days, hydrochloride, read-out: EC50-value (μM) for FPV). In addition, the figures for the “Titer reduction of CPV-2c, log10 reduction compared with control” value in test [6] (10 μM compound), in test [6] (50 μM compound) and in test [6] (250 μM compound) were 0.50 log10, 2.71 log10 and 2.71 log10, respectively.
